Experiments:
[1] = system: mice homozygous for the cystic fibrosis mutation CFTR^deltaF508/deltaF508; type: in vivo; conditions: 13 mg/kg/day intraperitoneally for 7 days, in corn oil; vs sham
Procedure: Animals were treated for 7 days and subsequently sacrificed. Jejunum was excised, fixed in Carnoy Solution and embedded in paraffin.

TMEM16A [2] = molecular target: T1, TMEM16A (Homo sapiens, UniProt Q5XXA6); assay: ATP-induced current in HT29 cells expressing TMEM16A, patch clamp; type: cell-based; design: expressed in transfected cells; conditions: 1 μM compound applied simultaneously with ATP (wo μM), #p<0.01
T1 sequence (Q5XXA6 1-986): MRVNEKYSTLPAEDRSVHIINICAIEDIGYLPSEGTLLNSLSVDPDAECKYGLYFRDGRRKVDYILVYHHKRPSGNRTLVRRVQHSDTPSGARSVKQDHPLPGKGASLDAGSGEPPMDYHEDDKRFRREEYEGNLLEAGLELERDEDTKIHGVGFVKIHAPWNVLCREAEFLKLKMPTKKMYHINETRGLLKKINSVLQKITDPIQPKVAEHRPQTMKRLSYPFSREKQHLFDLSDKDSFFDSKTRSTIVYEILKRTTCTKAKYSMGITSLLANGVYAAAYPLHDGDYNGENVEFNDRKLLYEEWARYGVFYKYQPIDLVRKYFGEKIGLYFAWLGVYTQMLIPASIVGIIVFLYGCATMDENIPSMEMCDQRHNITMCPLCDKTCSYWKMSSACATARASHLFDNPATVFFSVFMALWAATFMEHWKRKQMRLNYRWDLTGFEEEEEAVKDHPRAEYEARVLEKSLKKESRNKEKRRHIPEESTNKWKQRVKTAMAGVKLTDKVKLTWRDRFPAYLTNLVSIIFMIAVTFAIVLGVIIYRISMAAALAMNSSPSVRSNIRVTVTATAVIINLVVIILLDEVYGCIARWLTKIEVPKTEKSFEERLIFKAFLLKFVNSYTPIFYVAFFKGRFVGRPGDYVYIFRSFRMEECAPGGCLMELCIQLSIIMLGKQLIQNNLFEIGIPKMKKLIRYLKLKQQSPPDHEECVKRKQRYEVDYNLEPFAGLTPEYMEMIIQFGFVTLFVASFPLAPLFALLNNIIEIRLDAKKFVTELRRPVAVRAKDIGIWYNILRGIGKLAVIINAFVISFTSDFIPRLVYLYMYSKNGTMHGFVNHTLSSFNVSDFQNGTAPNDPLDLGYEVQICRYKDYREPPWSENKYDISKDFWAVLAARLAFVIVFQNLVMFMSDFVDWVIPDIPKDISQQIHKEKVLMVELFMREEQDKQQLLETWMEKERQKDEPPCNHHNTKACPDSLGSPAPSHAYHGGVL
Source text: FIG. 2: ATP-induced current in HT29 cells expressing TMEM16A in an electrophysiological patch clamp investigation.
ATP was applied at a concentration of wo μM.

TMEM16A [3] = molecular target: T1, TMEM16A; design: expressed in transfected cells; host or cells: HEK293 cells; conditions: Miner et al. [3]; cited from earlier work
endogenous TMEM16A = assay: Iodide quenching of YFP in HT29 cells stimulated with ionomycin; type: cell-based
Procedure: FIG. 15: Inhibition of TMEM16A and TMEM16F by niclosamide. • A) TMEM16A whole cell currents in overexpressing HEK293 cells. […] Rate of YFP quenching (arbitrary units (au/second), when applying 20 mM iodide to the extracellular bath solution. HT29 cells stably overexpressing YFP were stimulated with […] ionomycin. 100,000 cells were seeded/well. Mean±SEM; (number of experiments) #significant inhibition when compared to the absence of the inhibitor (p<0.05; unpaired t-test); *significant activation by UTP (paired t-test).
Similar to TMEM16A, also overexpressed TMEM16F was inhibited by niclosamide (FIG. 15D). The effect of niclosamide was also examined on endogenous TMEM16A expressed in HT29 colonic carcinoma cells, which were stably transfected with iodide-sensitive yellow fluorescent protein (YFP). TMEM16A was activated by ionomycin and TMEM16A currents were measured as iodide quenching.

## O=C(Nc1ccc([N+](=O)[O-])cc1Cl)c1cc(Cl)ccc1O [niclosamide, 5-chloro-N-(2-chloro-4-nitrophenyl)-2-hydroxybenzamide]
[1]
  jejunal diameters: smaller
  mucus in jejunum (alcian blue): largely reduced
TMEM16A [2]
  ATP-induced ion current arising from TMEM16A activation: significantly reduced
TMEM16A [3]
  TMEM16A inhibition: inhibitors of TMEM16A
Endogenous TMEM16A; HT29 YFP iodide quenching
  potency compared with CaCCinhAO1 or dichlorophen: more potent
Endogenous TMEM16A; HT29 cells stably expressing YFP, ionomycin, 20 mM iodide
  inhibition of endogenous TMEM16A (iodide quenching of YFP): low nanomolar range

Reference: patent US20210283110A1, “COMPOUND FOR USE IN THE TREATMENT OF A DISEASE CHARACTERIZED BY DYSREGULATED MUCUS PRODUCTION AND/OR SECRETION” (UNIVERSITÄT REGENSBURG, priority 2018, published 2021)
